Data set [1] in a line: Insulin oral delivery in rats, serum human insulin by ELISA and serum glucose. The conditions noted are these: delivery agent compound dose 200 mg/kg, insulin dose 0.5 mg/kg, volume dose 1.0 ml/kg. It counts as in vivo, Male Sprague-Dawley rats. How it is done:
Oral dosing (PO) compositions of delivery agent compound and human zinc insulin (minimum 26 IU/mg available from Calbiochem—Novabiochem Corp, La Jolla, Calif.) were prepared in deionized water. […] The solution was vortexed, then heated (about 37° C.) and sonicated. The pH was adjusted to about 7 to 8.5 with NaOH or HCl.
About 1.25 mg insulin from an insulin stock solution (15 mg/ml made from 0.5409 g insulin and […] deionized water, adjusting with HCl and NaOH to pH 8.15 and to obtain a clear solution using […]) was added to the solution and mixed by inverting.
The typical dosing and sampling protocols were as follows. […] A dosing group of five animals was administered one of the dosing solutions. […] The syringe was filled with dosing solution by drawing the solution through the catheter, which was then wiped dry. The catheter was placed down the esophagus leaving 1 cm of tubing past the incisors. Solution was administered by pressing the syringe plunger.
Serum insulin levels were determined with an Insulin ELISA Test Kit (Kit # DSL-10-1600 from Diagnostic Systems Laboratories, Inc., Webster, Tex.), modifying the standard protocol in order to optimize the sensitivity and linear range of the standard curve for the volumes and concentrations of the samples used in the present protocol. […]

The structures appear in SMILES notation.

For `O=C(O)CCCCNC(=O)c1ccc(Cl)cc1O` [Compound 1, 5-(2-Hydroxy-4-Chlorobenzoyl)Aminovaleric Acid], the melting point lay within 140 to 141 °C. Also, in data set [1], the “Mean peak serum insulin” value is recorded as 36.25 ± 2.5 μU/ml.

As usually defined, the melting point is the temperature of the solid-liquid transition.
